Measured values: BindingDB's records for doi:10.7270/Q2930RT9 (The Scripps Research Institute Molecular Screening Center, 2014)

Each compound was assayed against T1, Disintegrin and metalloproteinase domain-containing protein 10 (Homo sapiens, UniProt O14672) (assay: ADAM10 inhibitors, peptide cleavage, dose response, biochemical, QFRET (AID 743254)).
T1 sequence (O14672 whole entry): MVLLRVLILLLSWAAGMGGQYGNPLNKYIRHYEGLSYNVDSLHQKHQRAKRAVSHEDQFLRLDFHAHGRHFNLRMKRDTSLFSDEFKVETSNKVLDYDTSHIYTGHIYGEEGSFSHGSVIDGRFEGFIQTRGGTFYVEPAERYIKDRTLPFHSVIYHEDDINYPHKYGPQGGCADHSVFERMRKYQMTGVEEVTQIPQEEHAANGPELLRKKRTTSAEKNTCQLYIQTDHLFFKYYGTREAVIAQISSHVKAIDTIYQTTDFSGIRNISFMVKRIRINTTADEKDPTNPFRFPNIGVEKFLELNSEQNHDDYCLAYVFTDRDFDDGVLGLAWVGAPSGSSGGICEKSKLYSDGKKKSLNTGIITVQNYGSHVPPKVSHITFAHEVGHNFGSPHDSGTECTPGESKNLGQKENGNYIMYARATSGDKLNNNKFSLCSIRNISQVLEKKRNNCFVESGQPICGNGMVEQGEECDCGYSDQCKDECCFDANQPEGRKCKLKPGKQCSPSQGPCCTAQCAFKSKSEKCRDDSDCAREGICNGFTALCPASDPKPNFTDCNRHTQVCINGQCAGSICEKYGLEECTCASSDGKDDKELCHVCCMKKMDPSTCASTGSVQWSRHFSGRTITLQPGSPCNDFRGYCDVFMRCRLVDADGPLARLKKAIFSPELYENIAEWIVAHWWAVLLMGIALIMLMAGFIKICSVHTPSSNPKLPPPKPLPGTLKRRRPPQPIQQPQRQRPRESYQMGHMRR

Point of comparison: Cc1nnc(=O)[nH]c1N=NCC1C=CC(=O)C([N+](=O)[O-])=C1 (configuration not stated) [MLS000585487], IC50 69.5 µM. Against it:
- CCCNc1c(F)c(F)c2c(C)c3ccccc3nc2c1F [1,2,4-trifluoro-9-methyl-N-propyl-3-acridinamine] — the same, 69.5 µM
- CCOC(=O)Cc1csc(NC(=O)c2sc3nc4cc(C)ccc4cc3c2N)n1 [2-[2-[(3-amino-7-methyl-thieno[2,3-b]quinoline-2-carbonyl)amino]thiazol-4-yl]acetic acid ethyl ester] — 9-fold lower, 7.72 µM
- CSc1nsc2nc(=O)c(/C=C3\C=Nc4ccccc43)c(N)n12 [5-amino-6-[(Z)-3-indolylidenemethyl]-3-(methylthio)-[1,2,4]thiadiazolo[4,5-a]pyrimidin-7-one] — 9.4-fold lower, 7.43 µM
- Cc1ccc(OCC(=O)Nc2nnc[nH]2)c(Br)c1 [2-(2-bromanyl-4-methyl-phenoxy)-N-(1H-1,2,4-triazol-5-yl)ethanamide] — 9.3-fold lower, 7.45 µM
- O=C1/C(=C/c2cccs2)SC(=S)N1NS(=O)(=O)c1ccccc1 — the same, 69.5 µM
- Cc1cc(/C=C(/C#N)c2nc3ccccc3[nH]2)c(C)n1-c1ccccc1C(=O)O [2-[3-[(Z)-2-(1H-benzimidazol-2-yl)-2-cyanoethenyl]-2,5-dimethylpyrrol-1-yl]benzoic acid] — 5.6-fold lower, 12.5 µM
- O=C1OCCN1C(=O)C1=[N+](c2ccc(Br)cc2)N[C-](c2ccc(F)cc2)[C@H]1c1ccc([N+](=O)[O-])cc1 [MLS000517953] — 3.8-fold lower, 18.5 µM
- COc1ccc(C=CC(=O)c2c(O)n(CCC3=CCCCC3)c(=O)[nH]c2=O)cc1OC [SMR000221147] — the same, 69.5 µM
- CN1C(=O)C(=CNCCCCCCCCCCC(=O)O)C(=O)N(C)C1=O [11-[[1,3-dimethyl-2,4,6-tris(oxidanylidene)-1,3-diazinan-5-ylidene]methylamino]undecanoic acid] — 5.3-fold lower, 13.1 µM
- O=C1OCCN1C(=O)C1=[N+](c2ccc(Br)cc2)N[C-](c2cccc(Cl)c2)[C@H]1c1ccc([N+](=O)[O-])cc1 [MLS000517955] — 3.2-fold lower, 21.4 µM
- Cc1cccc(S(=O)(=O)C(C#N)c2nc3ccccc3nc2N2CCOCC2)c1 (configuration not stated) [2-(3-methylphenyl)sulfonyl-2-(3-morpholin-4-ylquinoxalin-2-yl)acetonitrile] — the same, 69.5 µM
- Cc1ccc(NCC(=O)NN=Cc2ccc(C(=O)O)cc2)cc1 [4-[[2-[(4-methylphenyl)amino]ethanoylhydrazinylidene]methyl]benzoic acid] — 4.5-fold lower, 15.6 µM
- COc1cc(OC)c(C2C3=C(CC(C)(C)CC3=O)OC(=N)C2C#N)cc1OC (configuration not stated) [SMR000054706] — 7.9-fold lower, 8.8 µM
- COc1ccc(-c2nnc(SCC(=O)Nc3cc(S(=O)(=O)N4CCCCC4)ccc3Cl)n2N)cc1 [SMR000243460] — 9-fold lower, 7.72 µM
- O=C(O)CCc1ccc(-c2ccccc2)n1-c1cccc(C(=O)O)c1 [3-[2-(2-carboxyethyl)-5-phenyl-1-pyrrolyl]benzoic acid] — 7.2-fold lower, 9.61 µM
- O=C(Cn1cncn1)NN=Cc1c2ccccc2cc2ccccc12 [N-(9-anthracenylmethylideneamino)-2-(1,2,4-triazol-1-yl)acetamide] — the same, 69.5 µM
- Fc1c(F)c(C(F)(F)F)c(F)c(F)c1N=NCc1cccs1 [MLS000533109] — the same, 69.5 µM
- O=C1c2ccccc2C(=O)N1CCCc1nc(-c2ccncc2)no1 [2-[3-(3-pyridin-4-yl-1,2,4-oxadiazol-5-yl)propyl]isoindole-1,3-dione] — 1.8-fold lower, 37.6 µM
- Cc1cccc(Oc2nc(-c3ccccn3)nc3ccccc23)c1 [2-Pyridin-2-yl-4-m-tolyloxy-quinazoline] — the same, 69.5 µM
- O=c1[nH][nH]c2cc(=O)n(-c3ccc(Cl)cc3)nc12 [5-(4-chlorophenyl)-1,2-dihydropyrazolo[4,3-c]pyridazine-3,6-dione] — 6.9-fold lower, 10.1 µM
- CC(C)C1Nc2ccc(S(N)(=O)=O)cc2C2C=CCC21 (configuration not stated) [SMR000070348] — 5.2-fold lower, 13.3 µM
- COc1cc(CN=O)cc(Br)c1OCc1ccc(Cl)cc1 [3-bromo-4-[(4-chlorobenzyl)oxy]-5-methoxybenzaldehyde oxime] — the same, 69.5 µM
- O=C1C=CC([N+](=O)[O-])=CC1CN=Nc1ccccn1 (configuration not stated) [MLS000585015] — 2.5-fold lower, 27.5 µM
- N#Cc1c(Cl)nc(N=NCc2ccccc2)c(Cl)c1Cl [2,4,5-tris(chloranyl)-6-[(2E)-2-(phenylmethylidene)hydrazinyl]pyridine-3-carbonitrile] — the same, 69.5 µM
- COc1ccc(N2C(=O)NC(=O)C(=Cc3c[nH]c4ccc(Br)cc34)C2=O)c(OC)c1 [(5E)-5-[(5-bromo-1H-indol-3-yl)methylene]-1-(2,4-dimethoxyphenyl)pyrimidine-2,4,6(1H,3H,5H)-trione] — 13-fold lower, 5.44 µM
- Oc1cc(N(CCc2ccccc2)C(=S)Nc2cc(Cl)ccc2Cl)c(O)n1-c1c(Cl)cccc1Cl [3-[2,5-bis(chloranyl)phenyl]-1-[1-[2,6-bis(chloranyl)phenyl]-2,5-bis(oxidanylidene)pyrrolidin-3-yl]-1-(2-phenylethyl)thiourea] — the same, 69.5 µM
- COC(=O)CCCC1=CC2=CC(=O)C(C)(OC(=O)C3CCCC3)C(=O)C2=CO1 (configuration not stated) [SMR000452591] — 9.6-fold lower, 7.23 µM
- CC(/C=C1\N=C(SCc2ccccc2Cl)SC1=O)=C\c1ccccc1 [(4Z)-2-[(2-chlorophenyl)methylsulfanyl]-4-[(E)-2-methyl-3-phenyl-prop-2-enylidene]-1,3-thiazol-5-one] — 5.8-fold lower, 12 µM
- COC(=O)c1ccc(-n2c(C)cc(CN=Nc3nc(C)cc(=O)[nH]3)c2C)cc1 [SMR000364461] — the same, 69.5 µM
- COc1ccc(N=C(C)c2sc3ccccc3c2O)cc1 [(2Z)-2-[1-(4-methoxyanilino)ethylidene]-1-benzothiophen-3-one] — 2.9-fold lower, 24 µM
- N#CCSc1nc2cc(C(=O)N3CCC(C(N)=O)CC3)ccc2c2nc3ccccc3n12 [1-({6-[(cyanomethyl)thio]benzimidazo[1,2-c]quinazolin-3-yl}carbonyl)piperidine-4-carboxamide] — 3.8-fold lower, 18.2 µM
- O=C(CC1CCCCC1)Nc1nc[nH]n1 [2-cyclohexyl-N-(1H-1,2,4-triazol-5-yl)ethanamide] — the same, 69.5 µM
- Cc1cc(C=C2C(=O)NC(=O)N(c3ccc(F)cc3)C2=O)c(C)n1-c1cccc(C(=O)O)c1 [3-[3-[(E)-[1-(4-fluorophenyl)-2,4,6-tris(oxidanylidene)-1,3-diazinan-5-ylidene]methyl]-2,5-dimethyl-pyrrol-1-yl]benzoic acid] — 3.6-fold lower, 19.4 µM
- O=c1[nH]c(=O)n(-c2ccc(Br)cc2)c(O)c1C=NCCN1CCCCC1 — 5.9-fold lower, 11.7 µM
- Cn1nc(-c2ccccn2)nc2c(=O)n(C)c(=O)nc1-2 [1,6-dimethyl-3-(2-pyridinyl)pyrimido[5,4-e][1,2,4]triazine-5,7(1H,6H)-dione] — the same, 69.5 µM
- C(=CN=Nc1nc2ccccc2s1)Cc1ccccc1 [3-phenylacrylaldehyde 1,3-benzothiazol-2-ylhydrazone] — the same, 69.5 µM
